Test results published in US9096832B2, “Differentiation of human embryonic stem cells” (LifeScan, Inc., priority 2007, dated 2015).
Several values for one entry are separate records, joined by “and”; a condition that tells them apart may be missing. Identical values can stand only once.

What was measured:
[1] = tested on: human embryonic stem cell line H9; assay: Cells from […] differentiated on MEFs: role of Wnt-3a (real-time PCR, FACS); assay type: cell-based
Procedure: Cells from the human embryonic stem cell line H9 cultured on […]™ for at least five passages were seeded onto MEF feeders in ES media.
At day 3 and 5, the cultures were analyzed by real time PCR for SOX-17, SOX-7, Alpha-fetal protein (AFP), CXCR4, Brychyury (Bry), gooscecoid (GSC), HNF-3 beta, GATA4, hTERT and Oct4. AFP and SOX-7 are regarded as visceral endoderm markers while GATA4, HNF-3beta and SOX-17 represent definite endoderm markers and GSC, Bry, and CXCR4 represent markers of primitive streak. hTERT and Oct-4 are markers for self renewal and pluripotency respectively. FACS analysis was also performed at day 3 and 5.

[2] = tested on: human embryonic stem cell line H9; assay: Cytokine array (RayBiotech) of cell lysates and conditioned media, Activin A +/- Wnt3a (Table VII); assay type: cell-based; set-up: Angiogenin / BDNF / BMP-4 / BMP-6 / CK beta 8-1 / Eotaxin-3 / Flt-3 Ligand / Fractalkine / GCP-2 / GDNF / GM-CSF / I-309 / IFN-gamma / IGFBP-1 / IGFBP-2 / IGFBP-4 / IL-10 / IL-13 / IL-15 / IL-1alpha / IL-1beta / IL-1ra / IL-3 / IL-5 / Leptin / MCP-1 / MIP-1-delta / NT-3 / RANTES / SCF / TGF-beta 1 / TNF-beta / Acrp30 / AgRP / AxI / bFGF: unit not given here
Procedure: At passage 54, cells were differentiated in the presence of 100 ng/mlActivinA+/−10 ng/mlWnt3a for 2 days in 0.5% FBS DMEM/F12. […]
Cell lysates were prepared from cells of each treatment group, with a mammalian cell lysis kit (Sigma-Aldrich,MO). Conditioned media from each treatment group was collected and concentrated. Cytokine array analysis was completed using Cytokine Array panels provided by RayBiotech, GA (http://www.raybiotech.com/). […] For each panel, positive and negative controls are also included.

[3] = Cell conditioned media, H9 day 5, samples 1,2
[4] = Cell lysate, H9 day 5, samples 1,2

Wnt-3a was tested, and the “role in differentiation of hES cells cultured on MEFs to definitive endoderm” value [1] was “does not appear to play a significant role”, the AFP expression ([1]; Wnt-3a added to 100 ng/ml activin A) was “increase in the expression of AFP that increases over time” and the Acrp30 [2, 3] was 2,795.71 and 2,302.99. The AgRP [2, 3] was 651.26 and 482.21, the Amphiregulin [2, 3] was 619.07 and 782.60 and the Angiogenin [2, 3] was 57,442.48 and 54,969.04. For the same substance, the Angiopoietin-2 [2, 3] was 65,959.24 and 71,664.21, the AxI [2, 3] was 610.40 and 748.34 and the BDNF [2, 3] was 770.08 and 715.86. The BLC [2, 3] was 337.12 and 249.80, the BMP-6 [2, 3] was 985.70 and 670.60 and the “CK beta 8-1” value [2, 3] was 42.78 and 75.44. For the same substance, the CNTF [2, 3] was 787.19 and 541.51, the EGF [2, 3] was 23,331.57 and 22,768.53 and the Eotaxin-2 [2, 3] was 2,156.21 and 1,445.14. The Eotaxin-3 [2, 3] was 2,140.81 and 1,480.35, the FGF-6 [2, 3] was 3,283.94 and 2,519.78 and the “Flt-3 Ligand” value [2, 3] was 511.67 and 792.98. The Fractalkine [2, 3] was 359.37 and 367.15, the GCP-2 [2, 3] was 451.78 and 362.12 and the GDNF [2, 3] was 443.22 and 509.66. The GM-CSF [2, 3] was 1,808.82 and 1,446.82, the I-309 [2, 3] was 318.30 and 288.36 and the IFN-gamma [2, 3] was 1,238.97 and 1,435.08. The IGF-I [2, 3] was 254.98 and 187.77, the IGFBP-1 [2, 3] was 227.60 and 155.91 and the IGFBP-2 [2, 3] was 42,215.53 and 43,934.33. The IGFBP-4 [2, 3] was 18,988.34 and 13,380.14, the IL-1alpha [2, 3] was 3,999.26 and 3,545.79 and the IL-1beta [2, 3] was 316.59 and 278.30. For the same substance, the IL-1ra [2, 3] was 354.23 and 581.75, the IL-2 [2, 3] was 758.10 and 881.84 and the IL-3 [2, 3] was 11,345.78 and 12,174.73. The IL-4 [2, 3] was 804.30 and 673.95, the IL-5 [2, 3] was 2,120.27 and 1,713.38 and the IL-6 [2, 3] was 9,774.82 and 9,991.93. For the same substance, the IL-10 [2, 3] was 1,625.71 and 1,129.96, the IL-13 [2, 3] was 2,522.42 and 1,807.27 and the IL-15 [2, 3] was 2,495.04 and 1,981.62. For the same substance, the IL-16 [2, 3] was 436.38 and 405.71, the LIGHT [2, 3] was 1,346.78 and 1,108.17 and the Leptin [2, 3] was 7,238.71 and 4,886.99. The M-CSF [2, 3] was 740.98 and 684.01, the MCP-1 [2, 3] was 2,015.89 and 1,567.53 and the MCP-2 [2, 3] was 694.78 and 694.07. The MCP-3 [2, 3] was 701.62 and 583.42, the MCP-4 [2, 3] was 231.02 and 276.62 and the MIP-1-delta [2, 3] was 474.02 and 291.71. For the same substance, the MIP-3-alpha [2, 3] was 208.78 and 184.41, the NAP-2 [2, 3] was 371.35 and 343.68 and the NT-3 [2, 3] was 571.57 and 427.51. The PARC [2, 3] was 474.02 and 363.80, the PDGF-BB [2, 3] was 2,635.37 and 2,005.09 and the RANTES [2, 3] was 682.80 and 855.01. The SCF [2, 3] was 1,394.69 and 2,155.98, the SDF-1 [2, 3] was 326.85 and 616.95 and the “TGF-beta 1” value [2, 3] was 1,827.65 and 1,849.18. For the same substance, the “TGF-beta 3” value [2, 3] was 294.34 and 343.68, the TNF-alpha [2, 3] was 2,609.70 and 2,167.71 and the TNF-beta [2, 3] was 1,701.01 and 1,637.94. For the same substance, the bFGF [2, 3] was 1,226.99 and 1,241.09, the Acrp30 [2, 4] was 601.61 and 690.66 and the AgRP [2, 4] was 77.82 and 89.00. For the same substance, the Angiogenin [2, 4] was 619.40 and 750.85, the AxI [2, 4] was 88.59 and 139.03 and the BDNF [2, 4] was 763.51 and 951.45. For the same substance, the BLC [2, 4] was 742.24 and 476.36, the BMP-4 [2, 4] was 348.44 and 304.48 and the BMP-6 [2, 4] was 571.23 and 641.05. For the same substance, the “CK beta 8-1” value [2, 4] was 22.48 and 21.54, the CNTF [2, 4] was 1,382.51 and 1,060.82 and the EGF [2, 4] was 742.24 and 984.39. For the same substance, the Eotaxin [2, 4] was 301.87 and 253.80, the Eotaxin-3 [2, 4] was 934.12 and 847.56 and the “Flt-3 Ligand” value [2, 4] was 857.45 and 795.19. The Fractalkine [2, 4] was 792.02 and 456.51, the GCP-2 [2, 4] was 593.71 and 538.86 and the GDNF [2, 4] was 436.75 and 444.68. The GM-CSF [2, 4] was 1,343.17 and 1,161.75, the I-309 [2, 4] was 708.52 and 743.25 and the IFN-gamma [2, 4] was 1,202.67 and 1,037.60. For the same substance, the IGFBP-1 [2, 4] was 59.41 and 85.73, the IGFBP-2 [2, 4] was 2,671.90 and 2,414.72 and the IGFBP-4 [2, 4] was 4,459.85 and 4,173.19. For the same substance, the IL-1alpha [2, 4] was 1,612.93 and 1,421.89, the IL-1beta [2, 4] was 352.05 and 312.08 and the IL-1ra [2, 4] was 302.68 and 198.48. For the same substance, the IL-3 [2, 4] was 2,119.94 and 1,497.48, the IL-4 [2, 4] was 625.42 and 638.94 and the IL-5 [2, 4] was 1,245.23 and 1,167.24. For the same substance, the IL-10 [2, 4] was 1,222.75 and 1,096.30, the IL-13 [2, 4] was 1,486.89 and 1,407.96 and the IL-15 [2, 4] was 1,677.16 and 1,601.79. The IL-16 [2, 4] was 651.11 and 668.50, the Leptin [2, 4] was 1,234.39 and 1,091.65 and the M-CSF [2, 4] was 852.63 and 867.83. For the same substance, the MCP-1 [2, 4] was 1,022.03 and 1,076.03, the MCP-3 [2, 4] was 1,184.61 and 1,255.50 and the MCP-4 [2, 4] was 1,380.51 and 1,606.86. The MDC [2, 4] was 269.36 and 280.41, the MIG [2, 4] was 1,113.16 and 1,137.26 and the MIP-1-delta [2, 4] was 491.75 and 322.22. The MIP-3-alpha [2, 4] was 1,602.09 and 1,399.93, the NT-3 [2, 4] was 316.73 and 275.76 and the PARC [2, 4] was 352.85 and 353.04. For the same substance, the PDGF-BB [2, 4] was 517.84 and 597.56, the RANTES [2, 4] was 724.98 and 637.25 and the SCF [2, 4] was 1,152.50 and 1,021.13. For the same substance, the TARC [2, 4] was 372.93 and 343.33, the “TGF-beta 1” value [2, 4] was 1,426.67 and 1,240.30 and the TNF-alpha [2, 4] was 2,851.74 and 1,285.91. For the same substance, the TNF-beta [2, 4] was 1,049.33 and 1,026.62, the bFGF [2, 4] was 11,722.95 and 21,398.52 and the “Angiogenin, IGFBP-1 and EGF” value ([2]; cell conditioned media) was “Noticeable upregulation”. The “proteins including IGFBP-1, TGFbeta-1 and TGFbeta-3” value ([2]; cell lysates) was “upregulated”.
